From US20060241114A1, “Derivatives of azasugars as anticancer agents” (priority 2003, published 2006)

Columns and labels:
[1] = system: U251 (human glioblastoma); assay: In vitro growth inhibition screen (sulphorhodamine B), U251; type: cell-based; conditions: U251 cells, incubated for 48 hours, sulphorhodamine B dye; read-out: GI50 (concentration which inhibits the cell growth by 50%), U251 Human glioblastoma astrocytoma
In short: (§1)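 SRB assay, 48 h treatment, RPMI 1640 + 10% FCS, 37° C, 5% CO2; dose range ≧100 μM–10 nM in ten-fold steps; OD 490 nm; GI50 derived.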

[2] = system: MCF7 (breast adenocarcinoma); assay: In vitro growth inhibition screen (sulphorhodamine B), MCF7; type: cell-based, human; conditions: MCF7 cells, incubated for 48 hours, sulphorhodamine B dye; read-out: GI50 (concentration which inhibits the cell growth by 50%), MCF7 Breast adenocarcinoma
In short: as §1

[3] = system: HT29 (colorectal adenocarcinoma); assay: In vitro growth inhibition screen (sulphorhodamine B), HT29; type: cell-based, human; conditions: HT29 cells, incubated for 48 hours, sulphorhodamine B dye; read-out: GI50 (concentration which inhibits the cell growth by 50%), HT29 Colorectal adenocarcinoma
In short: as §1

[4] = system: DU145 (prostate carcinoma); assay: In vitro growth inhibition screen (sulphorhodamine B), DU145; type: cell-based, human; conditions: DU145 cells, incubated for 48 hours, sulphorhodamine B dye; read-out: GI50 (concentration which inhibits the cell growth by 50%), DU145 Prostate carcinoma
In short: as §1

LOX (melanoma) = assay: In vitro growth inhibition screen (sulphorhodamine B), LOX; type: cell-based, human; conditions: LOX cells, incubated for 48 hours, sulphorhodamine B dye; read-out: GI50 (concentration which inhibits the cell growth by 50%), LOX Melanoma
In short: as §1

[5] = system: MCF7ADR (adriamycin resistant breast adenocarcinoma); assay: In vitro growth inhibition screen (sulphorhodamine B), MCF7ADR; type: cell-based, human; conditions: MCF7ADR cells, incubated for 48 hours, sulphorhodamine B dye; read-out: GI50 (concentration which inhibits the cell growth by 50%), MCF7ADR Adriamycin Resistant Breast adenocarcinoma
In short: as §1

| GI50 [1] [µM] | GI50 [2] [µM] | GI50 [3] [µM] | GI50 [4] [µM] | GI50 (LOX (melanoma)) [µM] | GI50 [5] [µM] | Compound |
| --- | --- | --- | --- | --- | --- | --- |
| > 624 | 378 | 203 | 364 | > 624 | > 624 | C=CCN1C(=O)[C@H](OCc2ccccc2)[C@@H](OCc2ccccc2)[C@H](OCc2ccccc2)[C@H]1COS(=O)(=O)c1ccc(C)cc1 [Compound No. 1, N-Allyl-6-O-(p-toluenesulphonyl)-2,3,4-tri-O-benzyl-D-gluco-δ-lactam] |
| > 380 | > 380 | 35 | 98.4 | 281 | > 380 | 2,3,4-Tri-O-benzyl-6-N-{[isopropyl]aminocarbonylamino}-1,5-dideoxy-1,5-imino-N-propyl glucitol [Compound No. 38] |
| 8.8 | 1.6 | 18.4 | 25.7 | 16.9 | 11.6 | CCCN1C(=O)[C@H](OCc2ccccc2)[C@@H](OCc2ccccc2)[C@H](OCc2ccccc2)[C@H]1CNC(=O)N1CCN(c2ccc(Cl)cc2)CC1 [Compound No. 75, 2,3,4-Tri-O-benzyl-6-N-{4-[4-chlorophenyl]piperazinylcarboxamido}-N-propyl-D-gluco-δ-lactam] |
| 6.4 | 6.4 | 3.6 | 4.2 | 3.1 | 4.6 | CCCN1C(=O)[C@H](OCc2ccccc2)[C@@H](OCc2ccccc2)[C@H](OCc2ccccc2)[C@H]1CNC(=O)Nc1cccc(Cl)c1 [Compound No. 13, 2,3,4-Tri-O-benzyl-6-N-{[3-chlorophenyl]aminocarbonylamino}-N-propyl-D-gluco-δ-lactam] |
| 30 | > 402 | 24.9 | 24.3 | 37.7 | > 402 | CCCN1C(=O)[C@H](OCc2ccccc2)[C@@H](OCc2ccccc2)[C@H](OCc2ccccc2)[C@H]1CNC(=O)CN1CCN(c2c(CC)cccc2CC)CC1 [Compound No. 62, 2,3,4-Tri-O-benzyl-6-N-{2-[N-(2,6-diethylphenyl)piperazinyl]acetyl}-N-propyl-D-gluco-δ-lactam] |
| 16.4 | 34.7 | 36.9 | 39.3 | 12.5 | 16.7 | CCCN1C(=O)[C@H](OCc2ccccc2)[C@@H](OCc2ccccc2)[C@H](OCc2ccccc2)[C@H]1CNC(=O)Nc1ccccc1 [Compound No. 10, 2,3,4-Tri-O-benzyl-6-N-{[phenyl]aminocarbonylamino}-N-propyl-D-gluco-δ-lactam] |
| 155 | 14.7 | 49.3 | 153 | 51.4 | 68.2 | CCCN1C(=O)[C@H](OCc2ccccc2)[C@@H](OCc2ccccc2)[C@H](OCc2ccccc2)[C@H]1CNC(=O)c1ccc(F)cc1F [Compound No. 47, 2,3,4-Tri-O-benzyl-6-N-{[2,4-difluorophenyl]carboxamido}-N-propyl-D-gluco-δ-lactam] |
| 117 | 66.8 | 42 | 60.6 | 55.3 | 246 | CCCN1C(=O)[C@H](OCc2ccccc2)[C@@H](OCc2ccccc2)[C@H](OCc2ccccc2)[C@H]1CNC(=O)CN1C(=O)c2ccccc2C1=O [Compound No. 63] |
| 25.7 | 38.6 | 28.6 | 45.2 | 40.9 | 90.7 | CCCN1C(=O)[C@H](OCc2ccccc2)[C@@H](OCc2ccccc2)[C@H](OCc2ccccc2)[C@H]1CNC(=O)N1CCN(c2ccc(F)cc2)CC1 [Compound No. 76, 2,3,4-Tri-O-benzyl-6-N-{4-[4-fluorophenyl]piperazinylcarboxamido}-N-propyl-D-gluco-δ-lactam] |
| 506 | 320 | 470 | 267 | 247 | 291 | CCCN1C[C@H](O)[C@@H](O)[C@H](O)[C@H]1Cn1ccnn1 [Compound No. 73, 1,5-Dideoxy-1,5-imino-N-propyl-6-triazolyl glucitol] |
| 46.9 | 11.4 | 14.6 | 29.6 | 10.4 | 33.9 | CCCN1C(=O)C(OCc2ccccc2)C(OCc2ccccc2)C(OCc2ccccc2)C1CNC(=O)Nc1ccc([N+](=O)[O-])cc1 [Compound No. 5, 2,3,4-Tri-O-benzyl-6-N-{[p-nitrophenyl]aminocarbonylamino}-N-propyl-D-gluco-δ-lactam] |
| 122 | 177 | 131 | 352 | 133 | 251 | CCCN1C(=O)[C@H](O)[C@@H](O)[C@H](O)[C@H]1CNC(=O)Nc1ccc(F)cc1F [Compound No. 49, 6-N-{[2,4Difluorophenyl]aminocarbonylamino}-N-propyl-D-gluco-δ-lactam] |
| 3.7 | 1.5 | 8.1 | 12.5 | 6.3 | 4.3 | CCCN1C(=O)[C@H](OCc2ccccc2)[C@@H](OCc2ccccc2)[C@H](OCc2ccccc2)[C@H]1CNC(=O)CN1CCN(c2ccc(Cl)cc2)CC1 [Compound No. 64, 2,3,4-Tri-O-benzyl-6-N-{2-[4-(4-chlorophenyl)piperazinyl]acetyl}-N-propyl-D-gluco-δ-lactam] |
| 34.4 | 36.2 | 44.4 | 38.5 | 37.5 | 52.2 | CCCN1C(=O)[C@H](O)[C@@H](O)[C@H](O)[C@H]1CN1C(=O)CCC1=O [Compound No. 86, 6-(2,5-Diketopyrrolidino)-N-propyl-D-gluco-δ-actam] |
| 52.8 | 35.4 | 37.1 | 16.7 | 14.4 | 18.7 | CCCN1C(=O)[C@H](OCc2ccccc2)[C@@H](OCc2ccccc2)[C@H](OCc2ccccc2)[C@H]1COc1nc(Cl)nc(Cl)n1 [Compound No. 90, 2,3,4-Tri-O-benzyl-6-O-(4,6-dichloro-1,3,5-triazin-1-yl)-N-propyl-D-gluco-δ-lactam] |
| 90.7 | 102 | 111 | 144 | 135 | 107 | N-Propyl-6-[4-chlorophenyl-3(2H,4H)-1,2,4-triazol-3-onyl]-D-gluco-δ-lactam [Compound No. 88] |
| 31.9 | 16.1 | 20.6 | 72.7 | 103 | 52.7 | CCCN1C[C@H](OCc2ccccc2)[C@@H](OCc2ccccc2)[C@H](OCc2ccccc2)[C@H]1CNC(=S)Nc1ccc(Cl)cc1 [Compound No. 39, 2,3,4-Tri-O-benzyl-6-N-{[4-chlorophenyl]aminothiocarbonylamino}-1,5-dideoxy-1,5-imino-N-propyl glucitol] |
| 3.2 | 4.1 | 3.6 | 5 | 2.3 | 6.6 | CCCN1C(=O)[C@H](OCc2ccccc2)[C@@H](OCc2ccccc2)[C@H](OCc2ccccc2)[C@H]1CNC(=O)CN1CCN(c2ncccn2)CC1 [Compound No. 54, 2,3,4-Tri-O-benzyl-6-N-{2-[4-(pyrimidyl)piperazinyl]acetyl}-N-propyl-D-gluco-δ-lactam] |
| 3.4 | 2 | 5.6 | 13.1 | 4 | 3.5 | CCCN1C(=O)[C@H](OCc2ccccc2)[C@@H](OCc2ccccc2)[C@H](OCc2ccccc2)[C@H]1CNC(=O)CN1CCN(c2cccc(C(F)(F)F)c2)CC1 [Compound No. 65, 2,3,4-Tri-O-benzyl-6-N-{2-[4-(3-(trifluoromethyl)phenyl)piperazin-1-yl]acetyl}-N-propyl-D-gluco-δ-lactam] |

| Compound | GI50 [1] [µM] | GI50 [2] [µM] | GI50 [3] [µM] | GI50 [4] [µM] | GI50 (LOX (melanoma)) [µM] | GI50 [5] [µM] |
| --- | --- | --- | --- | --- | --- | --- |
| CCCN1C(=O)[C@H](OCc2ccccc2)[C@@H](OCc2ccccc2)[C@H](OCc2ccccc2)[C@H]1CNC(=O)Oc1ccccc1 [Compound No. 74, 2,3,4-Tri-O-benzyl-6-N-[phenyl carbamate]-N-propyl-D-gluco-δ-lactam] | 34.2 | 25.4 | 10.7 | 90.9 | 51.8 | 26.1 |
| CCCN1C(=O)[C@H](O)[C@@H](O)[C@H](O)[C@H]1CNC(=O)Nc1ccccc1C(F)(F)F [Compound No. 25, 6-N-{[2-Trifluoromethylphenyl]aminocarbonylamino}-N-propyl-D-gluco-δ-lactam] | 278 | 190 | 311 | 386 | 94.6 | 228 |
| CCCN1C(=O)[C@H](O)[C@@H](O)[C@H](O)[C@H]1CNC(=O)Nc1ccc(F)cc1 [Compound No. 29, 6-N-{[4-Fluorophenyl]aminocarbonylamino}-N-propyl-D-gluco-δ-lactam] | 87 | 85.8 | 58.6 | 280 | 290 | 165 |
